This is an account of results in patent US8541670B2, “Compositions and methods for inhibiting tumor cell growth” (priority 2007, dated 2013).

The target in one assay is AKT2 (Homo sapiens, UniProt P31751). Nature of the assay: In vitro kinase assay AKT2. It is filed as biochemical. Particulars: ten times higher concentration than 0.1 μM. As to the method:
As a specific substrate, the phosphorylation level of GSK-3[…] at Ser-9 was also evaluated. […] The decrease was specific to the AKT phosphorylation site on GSK-3[…] at Ser-9, since a change in the phosphorylation level of GSK-3[…] at Tyr-216 or GSK-3[…] at Tyr-279 was not observed. Moreover, the in vivo reduction of the phosphorylation of AKT substrates was more obvious at the injection site, since a significant change in the phosphorylation of AKT substrates in the frontal cortex or cerebellum between the two hemispheres was not observed. […] To test the specificity/selectivity of ZaTa as the inhibitor of AKT1 versus the other major kinases, a series of in vitro kinase assays was performed at IC50 for AKT1 and at ten times higher concentrations. A panel of the following 32 kinases was first tested in vitro using the active form of each kinase and a specific substrate: AKT2, AKT3, PKA, PKC[…], PKC, PI3K[…], PI3K[…], PI3K, SGK, PAK2, PAK3, SAPK2/p38, Abl, CaMKII, CDK1/cyclinB, CDK5/p35, CK1, CK2, CSK, GSK3[…], GSK3[…], JNK1[…]1, MAPK1, p70S6K, PDGFR[…], PDGFR[…], PDK1, PKG1[…], TrkB, JAK2, JAK3, and Syk. […] However, at ten times higher concentration, ZaTa inhibited AKT2 (63%), PI3K[…] (72%), p70S6K (64%), SGK (73%), PAK3 (83%), JAK3 (79%), TrkB (84%), and Abl (42%). […]

The subject of another assay is AKT. Nature of the assay: In vivo AKT inhibition in brain after stereotactic injection (immunofluorescence, western blot). Details: species or system mouse. The protocol:
As a specific substrate, the phosphorylation level of GSK-3[…] at Ser-9 was also evaluated. […] The decrease was specific to the AKT phosphorylation site on GSK-3[…] at Ser-9, since a change in the phosphorylation level of GSK-3[…] at Tyr-216 or GSK-3[…] at Tyr-279 was not observed. Moreover, the in vivo reduction of the phosphorylation of AKT substrates was more obvious at the injection site, since a significant change in the phosphorylation of AKT substrates in the frontal cortex or cerebellum between the two hemispheres was not observed. […] To test the specificity/selectivity of ZaTa as the inhibitor of AKT1 versus the other major kinases, a series of in vitro kinase assays was performed at IC50 for AKT1 and at ten times higher concentrations. A panel of the following 32 kinases was first tested in vitro using the active form of each kinase and a specific substrate: AKT2, AKT3, PKA, PKC[…], PKC, PI3K[…], PI3K[…], PI3K, SGK, PAK2, PAK3, SAPK2/p38, Abl, CaMKII, CDK1/cyclinB, CDK5/p35, CK1, CK2, CSK, GSK3[…], GSK3[…], JNK1[…]1, MAPK1, p70S6K, PDGFR[…], PDGFR[…], PDK1, PKG1[…], TrkB, JAK2, JAK3, and Syk. […] However, at ten times higher concentration, ZaTa inhibited AKT2 (63%), PI3K[…] (72%), p70S6K (64%), SGK (73%), PAK3 (83%), JAK3 (79%), TrkB (84%), and Abl (42%). To confirm the in vitro inhibitory effect on these kinases in cells, a cell-based assay was used to determine the effect of labeled ZaTa on the phosphorylation levels of well-known intracellular substrates for each kinase (Zipfel, et al. (2004) Curr. Biol. 14:1222-1231; Wang, et al. (2003) Arch. Biochem. Biophys. 410:7-15; King, et al. (1998) Nature 396:180-183; Rangone, et al. (2004) Eur. J. Neurosci. 19:273-279; Middlemas, et al. (1994) J. Biol. Chem. 269:5458-5466; Huang, et al. (1999) J. Biol. Chem. 274:7870-7878). […] Given that most of the above-listed kinases have no known inhibitor, it is contemplated that the ZaTa could be used at micromolar concentrations in in vitro studies to inhibit the activity of the select kinases.
These different localization patterns of ZaTa within the cell were usually accompanied with redistribution of AKT to the site of ZaTa.
N2a cells were cultured in Dulbecco's Modified Eagle's Medium (DMEM) and OPTI-MEM® media (50% of each; GIBCO-BRL, Gaithersberg, Md.) supplemented with 5% fetal bovine serum (FBS; SIGMA, St. Louis, Mo.), penicillin-streptomycin and L-Glutamine (GIBCO-BRL). Cells (˜1×10^6) or frontal cortex of mouse brain (0.05-0.1 gram) were homogenized in ice cold lysate buffer (0.25 M Tris, pH 7.5) containing protease inhibitors (Protease Inhibitor Cocktail tablets; Boehringer Mannheim, Mannheim, Germany) and phosphatase inhibitors (Phosphatase Inhibitor Cocktails I & II; SIGMA) and lysed through three cycles of freezing in liquid nitrogen and thawing in a 37° C. water bath. Protein concentration was measured using a commercially available protein assay (BIO-RAD, […].) protein assay and spectrometry at […]. Equal amounts of total protein were loaded on 4-12% gradient Bis-Tris gels, separated using the NUPAGE® system (INVITROGEN, Carlsbad, Calif.) and transferred onto nitrocellulose membrane. The membrane was probed with primary and secondary antibodies and signals were detected by chemiluminescence followed by autoradiography.
For immunofluorescence analysis of mouse brain, anaesthetized mice were perfused with PBS-buffered formalin, fixed overnight, placed in PBS, and stored at 4° C. VIBRATOME® sections, 50-μm thick, were cut in the coronal plane from the fronto-striatum brain region. […] The sections were blocked overnight using 2% normal goat sera in PBS with 0.3% TRITON™ X-100 and then incubated for 48 hours in blocking solution with 1:500 dilution of anti-phospho-AKT substrate antibody. Sections were washed four times for 15 minutes in PBS, incubated with blocking solution containing goat anti-rabbit ALEXA®-568 secondary antibody (MOLECULAR PROBES, Eugene, Oreg.) for 48 hours, and washed four times for 15 minutes in PBS. […]
(In general: Immunoblotting shows a protein as a band on a membrane.)

Assay [1] has as its system axonal filament bundles in striatum. Briefly: In vivo axon morphology, neurofilament-H staining of striatum after stereotactic injection. Further details: species or system mouse. The following applies: 18 hours after surgery, versus DMSO hemisphere. The protocol:
To determine the phenotypic effect of disrupting the AKT-PKAc complex in an in vivo setting, ZaTa peptide was stereotactically injected into the brain of a mouse and the animal was perfused 18 hours after recovery from surgery. Because AKT is known to have a role in axonal morphology (Markus, et al. (2002) Neuron 35:65-76), coronal sections of striatum were stained with neurofilament-H(NF—H), as an axonal-specific marker. […] PKA is also known to have a role in regeneration of growth cones on axons (Chierzi, et al. (2005) Eur. J. Neurosci. 21:2051-2062). Therefore, given the data provided herein, it is believed that a proper interaction between AKT and PKAc is involved in maintaining normal neuronal morphology.

The subject of another assay is N2a cells. Nature of the assay: Neurite count and live imaging of N2a neurons. It counts as cell-based. The protocol:
Accordingly, the stability and phenotypic consequences of the AKT-PKAc complex was also analyzed in cultured neurons. N2a cells were treated with vehicle, ZaTa or control peptide for 24 hours. Media was removed after the 24-hour treatment and an equal number of cells from each treatment group was either cultured for another 24 hours without treatment, or lysed and subjected to immunoprecipitation with an antibody against AKT. Those cells cultured for another 24 hours were also harvested and subjected to immunoprecipitation. In parallel, the number of individual neurons with neurites was counted. […] Live images of N2a neurons were captured following treatment with vehicle or ZaTa (2 or 5 μM). […] ZaTa-mediated changes included a progressive loss of neurites, inhibition of new neurite formation, loss of cell motility, as well as formation of large cell colonies.

Where no end group is shown, it is not given here. red fluorescent dye = not defined here

AKT2, sequence (P31751 whole entry, species assumed): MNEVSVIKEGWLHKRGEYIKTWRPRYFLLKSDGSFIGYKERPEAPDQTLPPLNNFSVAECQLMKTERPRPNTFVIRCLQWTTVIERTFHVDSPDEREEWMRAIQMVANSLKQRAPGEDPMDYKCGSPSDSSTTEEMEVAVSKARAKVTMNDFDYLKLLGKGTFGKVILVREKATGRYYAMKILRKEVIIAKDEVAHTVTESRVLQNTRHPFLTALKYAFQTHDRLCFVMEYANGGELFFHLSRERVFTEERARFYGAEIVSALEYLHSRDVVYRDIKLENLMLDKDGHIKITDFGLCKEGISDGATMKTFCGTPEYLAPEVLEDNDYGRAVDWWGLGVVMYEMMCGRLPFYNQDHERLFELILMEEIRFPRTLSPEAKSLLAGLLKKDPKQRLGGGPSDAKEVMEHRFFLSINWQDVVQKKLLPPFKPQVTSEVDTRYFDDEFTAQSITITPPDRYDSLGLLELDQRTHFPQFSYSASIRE

For AKRVKGRTWTLCGTPEY [ZaTa], the “inhibition of AKT2” value against AKT2 is reported as 63%. For the same substance, in the assay on AKT (away from striatal injection site, between hemispheres), the “change in phosphorylation of AKT substrates in frontal cortex or cerebellum” value is on record as “not observed”. Also, in the assay on AKT (one hour after stereotactic injection), the “phosphorylation level of AKT substrates in vivo, western blot” value was “significant decrease”. Moreover, in the assay on AKT (stereotactic injection, versus DMSO-injected hemisphere), the “phosphorylation level of AKT substrates in striatum, immunofluorescence” value is recorded as “decrease in the phosphorylation level of AKT substrates”. Further, in the assay on AKT (striatum), the “change in phosphorylation level of GSK-3[…] at Tyr-216 or Tyr-279” value is on record as “not observed”. In addition, the “phosphorylation level of GSK-3[…] at Ser-9” value in the assay with AKT (striatum, versus DMSO-injected hemisphere) is recorded as “specific reduction”. Moreover, the “staining pattern of axonal filament bundles (NF-H) in striatum” value in assay [1] is recorded as “Changes in the staining pattern of axonal filament bundles”. In addition, the “morphology of N2a neurons, live images” value in the assay with N2a cells (2 or 5 μM) was “dramatic morphological changes”. Moreover, in the assay on N2a cells (24-hour incubation in the absence of ZaTa), the “reversibility of neurite reduction” value is “reversible”. Moreover, the “number of neurons with neurites” value in the assay with N2a cells (24-hour treatment) is “significant reduction”.

Take “labeled ZaTa: ZaTa peptide labeled with a red fluorescent dye at its N-terminus ({red fluorescent dye}-AKRVKGRTWTLCGTPEY; reading uncertain)”: the “phosphorylation level of AKT substrates in ZaTa-positive cells” value with AKT (stereotactic injection into frontal cortex) is reported as “specific reduction in phosphorylation level of AKT substrates”.
